Columns and labels:
Format in all cases: cell-based
monocytes in WB [1] = assay: IL-6 secretion in citrated human whole blood (screening for inflammatory and anti-inflammatory potential); conditions: for LPS induced IL-6 production, variant compared to the unsubstituted peptide: in the presence of LPS, FIG. 7; for PGN induced IL-6 production, variant compared to the unsubstituted peptide: FIG. 8; for effect on LPS induced IL-6 secretion: 100 ng/ml LPS, FIG. 2; for effect on PCW induced IL-6 secretion: PCW 50 μg/ml from Staphylococcus aureus, FIG. 4; for IL-6 secretion in the absence of bacterial components: no bacterial component, peptide 0.09, 0.18, 0.36 and 0.71 mg/ml blood, FIG. 1
Excerpt: Human whole blood (WB) contains besides red cells, platelets and plasma the white blood cells including the neutrophils and monocytes. Neutrophils and monocytes have receptors for bacterial products such as LPS, PGN and LTA. The bacterial products react directly or via specific binding proteins to receptors on the monocytes thereby stimulating them to secrete and release inflammatory cytokines comprising, but not limited to IL-1, IL-6, and TNF-α.
In the example to be described LPS from the E. coli is used to stimulate the monocytes in WB (anti-coagulated by use of citrate) and the activity is measured by subsequently quantifying IL-6 in plasma separated from WB. The activity of HBP, HBP derived peptides and analogues hereof are evaluated by their ability to: • 1. increase IL-6 secretion in absence of bacterial products • 2. increase IL-6 secretion in presence of bacterial products • 3. decrease IL-6 secretion in presence of bacterial products • 4. inhibit amplification of cytokine secretion induced by intact HBP
All operations must be carried out in LAF cabinet by observance of stringent aseptic techniques. All test tubes, pipette tips etc. must be pyrogen-free. Buffers must be prepared by use of sterile, […], preferably water for injection. Use 0.1% pyrogen-free BSA/PBS for all dilutions.
Add 20 μl of HBP derived peptide (in concentrations from 25 to 2500 μM) to 100 μl freshly drawn (less than 4 hours old) citrate whole blood from a healthy human volunteer. Add 20 μl bacterial component (LPS, LTA or PGN) in concentrations from 5 to 5000 ng/ml, preferably 50 to 500 ng/ml. Mix well and incubate for 16-18 hours in an atmosphere of 5% carbon dioxide and at least 95% relative humidity. At the end of the incubation add at least 5 volumes (700 μl) 0.1% BSA/PBS. Mix well. Centrifuge 10 min. at 10.000 g. Aspirate 500 μl supernatant. Determine the level of IL-6 by a specific human immune assay for human IL-6 with sensitivity of at least 3 pg/ml, e.g. Human IL-6 Kit from RnD Systems (cat. no. D 6050).
Negative controls: 100 μl WB plus 40 μl 0.1% BSA/PBS. Positive control: 100 μl WB plus 20 μl LPS (same concentration as used for testing the peptide) and 20 μl 0.1% BSA/PBS.
The human (h20-44) and porcine (p20-44) peptides were synthesized and tested in the screening assay described in Example 1. The following parameters were examined: (a) abililty to induce inflammation on their own (i.e. in the absence of any bacterial component), (b) ability to amplify or inhibit inflammation induced by a bacterial component, such as LPS from the Gram negative bacteria E. coli and PGN or Purified Cell Wall (PCW) from a Gram positive bacteria. As measure for immune stimulation secretion of the release of IL-6 in citrated whole blood was used. The peptides were tested in the concentrations 0.09, 0.18, 0.36 and 0.71 mg/ml blood. […]

monocytes in WB [2] = assay: as above; conditions: 250 μg/ml PGN from S. aureus
Human Neutrophils (PMNs) = assay: Apoptosis of isolated human neutrophils, TUNEL assay with flow cytometry; conditions: 25 μg HBP per ml sample; 24 h culture; control about 70%
Protocol: The screening for anti-apoptotic peptides is carried out essentially as described by Shrotri M S. et al., 2000.
Peripheral blood from normal volunteers was collected and PMNs were separated by density gradient using Ficoll-Hypaque (Sigma Chemical Co.). PMNs obtained were divided into 1-ml samples with […] and were treated and analyzed as per the protocols described below.
Cell pellets were obtained by centrifugation at 300 g and fixed with 1% paraformaldehyde for 15 min at 4° C. Cells were washed twice and permeabilized with 70% ice-cold ethanol and stored at […]. Cells samples were washed twice and stained by the terminal dUTP nick-end labeling (TUNEL) assay using the APO-BRDU kit (Phoenix Flow Systems, San Diego, Calif.), following the manufacturer's instructions. Briefly, in this assay, the enzyme terminal deoxynucleotidyl transferase (TdT) catalyzes the addition of nucleotides to DNA strand breaks in the apoptotic cells, which are subsequently labeled with fluorescein isothiocyanate (FITC)-conjugated antinucleotide antibodies. The fluorescent cells are the apoptotic cells that are then identified or assessed using the flow cytometer (EPICS Elite, Beckman-Coulter, Hialeah, Fla.). These apoptotic cells were also visually confirmed by confocal microscopy (Meridian Instruments Inc., Okemos, Mich.).
Time zero group. […]

[3] = PGN 50 μg/ml from Staphylococcus aureus, peptide 0.09-0.71 mg/ml blood, FIG. 3

Question: With “KQGRHFCGGALIHARFVMTAASCFR (Peptide fragment amino acid residues 20-44 of hHBP with mutations N20K,Q44R) [hHBP 20-44 with both N- and C-terminal residues substituted with the corresponding porcine residues]” as the molecule, how does the “LPS induced IL-6 production, variant compared to the unsubstituted peptide” value (monocytes in WB [1]) read?
Answer: The value was “nearly non-stimulating”.

Question: What about the “PGN induced IL-6 production, variant compared to the unsubstituted peptide” value (monocytes in WB [1]; in the presence of PGN) of the same molecule?
Answer: The value was “inhibitory”.

Question: For “KQGRPFCAGALVHPQFVLTAASCFR (Peptide fragment amino acid residues 20-44 of pHBP with mutation R34Q) [R34Q pHBP 20-44, substitution of arginine to glutamine in position 34 of pHBP 20-44]”, which “effect on PGN induced IL-6 secretion” value (monocytes in WB [1]; in the presence of PGN, FIG. 6) is on record?
Answer: The value was “completely abolished the inhibitory effect”.

Question: Which results are given for “KQGRPFCAGALVHPRFVLTAASCFQ (Peptide fragment amino acid residues 20-44 of pHBP with mutation R44Q) [pHBP 20-44 with C-terminal amino acid residue replaced with the human C-terminal residue]”?
Answer: LPS induced IL-6 production, variant compared to the unsubstituted peptide (monocytes in WB [1]): the same pattern was observed; PGN induced IL-6 production, variant compared to the unsubstituted peptide (monocytes in WB [1]; in the presence of PGN): the same pattern was observed

Question: For “KQGRPFCAGALVHPRFVLTAASCFR (Peptide fragment amino acid residues 20-44 of pHBP) [porcine HBP 20-44]”, which “effect on LPS induced IL-6 secretion” value (monocytes in WB [1]; peptide 0.09-0.71 mg/ml blood) is on record?
Answer: Its value is “significantly and dose-dependently inhibited”.

Question: What about the “effect on PCW induced IL-6 secretion” value (monocytes in WB [1]; peptide 0.09-0.71 mg/ml blood) of the same molecule?
Answer: The value was “significantly and dose-dependently inhibited”.

Question: What about the “effect on PGN induced IL-6 secretion” value (monocytes in WB [1]; [3]) of the same molecule?
Answer: The value was “significantly and dose-dependently inhibited”.

Question: What about the “IL-6 secretion in the absence of bacterial components” value (monocytes in WB [1]) of the same molecule?
Answer: Its value is “no significant or dose-dependent effect”.

Question: “NQGRHFCGGALIHARFVMTAASCFQ [human HBP 20-44]” was tested. Which “sum of the IL-6 secretion induced by LPS and peptide individually” value (monocytes in WB [1]; 100 ng/ml LPS alone plus 0.71 mg/ml peptide alone) did it give?
Answer: The value was 14,178 pg/ml.

Question: And the “IL-6 secretion, peptide and LPS together” value (monocytes in WB [1]; 100 ng/ml LPS plus 0.71 mg/ml peptide)?
Answer: Its value is 12,130 pg/ml.

Question: What about the “effect on LPS induced IL-6 secretion” value (monocytes in WB [1]; 0.71 mg/ml peptide) of the same molecule?
Answer: The value was “increased IL-6 secretion significantly”.

Question: And the “effect on LPS induced IL-6 secretion” value (monocytes in WB [1]; up to 0.36 mg/ml peptide)?
Answer: The value was “did not significantly increase”.

Question: And the “effect on PCW induced IL-6 secretion” value (monocytes in WB [1]; peptide 0.09-0.71 mg/ml blood)?
Answer: The value was “increased IL-6 secretion in dose-dependent way”.

Question: What about the “effect on PGN induced IL-6 secretion” value (monocytes in WB [1]; [3]) of the same molecule?
Answer: The value was “increased IL-6 secretion in dose-dependent way”.

Question: And the “IL-6 secretion in the absence of bacterial components” value (monocytes in WB [1])?
Answer: Its value is “significant and dose-dependent increase”.

Question: Which results are given for “NQGRPFCAGALVHPRFVLTAASCFR (Peptide fragment amino acid residues 20-44 of pHBP with mutation K20N) [pHBP 20-44 whose N-terminal amino acid residue was substituted with the human N-terminal residue]”?
Answer: LPS induced IL-6 production, variant compared to the unsubstituted peptide (monocytes in WB [1]): less inhibitory; PGN induced IL-6 production, variant compared to the unsubstituted peptide (monocytes in WB [1]; in the presence of PGN): less inhibitory

Question: Which “fold stimulation of the PGN mediated IL-6 production” value (monocytes in WB [2]; FIG. 5 compared to FIG. 2) does the source give for “hHBP 20-44 acetylated at the N-terminal amino group and amidated at the C-terminal carboxyl group: hHBP 20-44 acetylated at the N-terminal amino group and amidated at the C-terminal carboxyl group (Ac-NQGRHFCGGALIHARFVMTAASCFQ-NH2; cysteine pairing not given here; UniProt P20160 46-70, looked up, fragment)” here?
Answer: Its value is “more than ten fold stimulation”.

Question: And the “effect on PGN induced IL-6 secretion” value (monocytes in WB [2]; normalized to PGN alone, FIG. 5)?
Answer: Its value is “stimulated the IL-6 secretion in a dose dependant way”.

Question: What does the source list for “pHBP 20-44 acetylated and amidated at the N- and C-terminal amino acids: pHBP 20-44 acetylated and amidated at the N- and C-terminal amino acids, respectively (Ac-KQGRPFCAGALVHPRFVLTAASCFR-NH2; cysteine pairing not given here; UniProt P80015 46-70, looked up, fragment)”?
Answer: LPS induced IL-6 production, variant compared to the unsubstituted peptide (monocytes in WB [1]): more inhibitory; PGN induced IL-6 production, variant compared to the unsubstituted peptide (monocytes in WB [1]; in the presence of PGN): more inhibitory

B1: HBP: heparin-binding protein (HBP), isolated from azurophile granules of human PMNs; also termed CAP37, azurocidin (protein, listed as Homo sapiens)
chain: IVGGRKARPRQFPFLASIQNQGRHFCGGALIHARFVMTAASCFQSQNPGVSTVVLGAYDLRRRERQSRQTFSISSMSENGYDPQQNLNDLMLLQLDREANLTSSVTILPLPLQNATVEAGTRCQVAGWGSQRSGGRLSRFPRFVNVTVTPEDQCRPNNVCTGVLTRRGGICNGDGGTPLVCEGLAHGVASFSLGPCGRGPDFFTRVALFRDWIDGVLNNPGPGPA
Question: With B1 as the molecule, how does the “amplification of cytokine secretion induced by bacterial products” value (monocytes in WB [1]) read?
Answer: Its value is “at least three-fold amplification”.

Question: What about the “cytokine secretion by HBP in itself” value (monocytes in WB [1]; no bacterial product) of the same molecule?
Answer: Its value is “no measurable effect”.

Question: What about the apoptosis (Human Neutrophils (PMNs)) of the same molecule?
Answer: The apoptosis was about 45%.

From US20060173162A1, “Bactericidak anti-apoptotic, pro-inflammatory and anti-inflammatory peptides of heparin-binding protein (hbp)” (priority 2002, published 2006)
